Assay results from article PMC7129073 (Clinical Microbiology and Infection, 2015).
In brackets after ≈: the same amount, converted by molar mass.

Legend:
[1] = system: viridans group streptococci (VGS); assay: MIC; assay type: cell-based
MRSA = assay: Agar dilution MIC; assay type: cell-based, Staphylococcus aureus
[2] = system: methicillin susceptible Staphylococcus aureus; assay: NCCLS agar dilution MIC; assay type: cell-based
MSSA = assay: Agar dilution MIC; assay type: cell-based, Staphylococcus aureus
[3] = system: methicillin resistant Staphylococcus aureus; assay: NCCLS agar dilution MIC; assay type: cell-based; settings: Staphylococcus aureus
S. pneumoniae (SPN) [4] = assay: NCCLS broth microdilution, fluoroquinolones 1999–2004; assay type: cell-based, Streptococcus pneumoniae; settings: Streptococcus pneumoniae, read-out: MIC90 during the six years, 1999–2004
Nocardia spp. [5] = assay: Time-kill at peak-serum concentrations, seven strains; assay type: cell-based; settings: of seven strains; 24, 72 h
[6] = system: Streptococcus agalactiae strains P0162 and P0425; assay: Microdilution; assay type: cell-based
Salmonella spp. = assay: Agar dilution susceptibility, gastroenteritis isolates Cuba; assay type: cell-based; settings: 34 strains, 2002
S. pneumoniae (SPN) [7] = assay: SENTRY Brazil, NCCLS broth microdilution; assay type: cell-based, Streptococcus pneumoniae
Acinetobacter = assay: Disk diffusion; assay type: cell-based; settings: 37 isolates selected as resistant to beta-lactams
H. influenzae (HI) = assay: SENTRY Brazil, NCCLS broth microdilution; assay type: cell-based, Haemophilus influenzae
nontyphoidal Salmonella = assay: Agar dilution, isolates from chickens 1998–2004; assay type: cell-based, Salmonella spp.
Escherichia coli O157:H7 = assay: Kirby-Bauer susceptibility; assay type: cell-based; settings: 30 strains, 1990–2003
Pseudomonas spp. = assay: MIC; assay type: cell-based
P. aeruginosa = assay: Disk diffusion, urine isolates of BPH patients
Enterobacteriaceae = assay: SMART 2003 Europe, microdilution; assay type: cell-based; settings: 1948 isolates
[8] = system: inducible Enterobacteriaceae; assay: SMART 2003, intraabdominal isolates; assay type: cell-based
Pseudomonas aeruginosa = assay: MIC, strains from cystic fibrosis patients; settings: by MIC
K. pneumoniae = assay: MIC; assay type: cell-based, Klebsiella pneumoniae; settings: Klebsiella pneumoniae
Nocardia spp. [9] = assay: E-test on Mueller Hinton agar, 81 clinical isolates; assay type: cell-based
[10] = system: Salmonella, other 49 serotypes; assay: Disk diffusion, food isolates Spain; assay type: cell-based; settings: n = 115
Escherichia coli = assay: Vitek 2 susceptibility, urine isolates of children; assay type: cell-based
[11] = system: Salmonella serotype Typhimurium; assay: Disk diffusion, food isolates Spain; assay type: cell-based; settings: n = 53
E. coli = assay: SMART 2003 Europe, microdilution; assay type: cell-based, Escherichia coli; settings: 1106 isolates
Klebsiella = assay: SMART 2003 Europe, microdilution; assay type: cell-based, Klebsiella spp.; settings: 341 isolates
[12] = system: Salmonella serotype Enteritidis; assay: Disk diffusion, food isolates Spain; assay type: cell-based; settings: n = 96
[13] = Phase 3 trial, complicated intra-abdominal infections; assay type: in vivo, human
CA-MRSA = assay: MIC, MBC; assay type: cell-based, Staphylococcus aureus; settings: time kill, two strains
MDR-MRSA = assay: MIC, MBC; assay type: cell-based, Staphylococcus aureus; settings: time kill, two strains
S. pneumoniae = assay: Broth microdilution; assay type: cell-based, Streptococcus pneumoniae; settings: 275 isolates
H. influenzae = assay: Broth microdilution; assay type: cell-based, Haemophilus influenzae; settings: 267 isolates
[14] = system: biofilms of S. aureus (SA204 and SA195) and S. epidermidis (ATCC35983 and ATCC35984); assay: Antibiotic lock, in vitro biofilm on polyurethane film, viable counts; assay type: cell-based, Staphylococcus species; settings: any of the time intervals examined

COc1c(N2C[C@@H]3CCCN[C@@H]3C2)c(F)cc2c(=O)c(C(=O)O)cn(C3CC3)c12 [moxifloxacin]
MIC50 [1]: 0.12 µg/mL (≈ 0.299 µM) | MIC90 [1]: 0.25 µg/mL (≈ 0.623 µM) | MIC50 (MRSA; Staphylococcus aureus, MRSA): < 4 µg/mL | MIC90 (MRSA; Staphylococcus aureus, MRSA): < 4 µg/mL | MIC range (MRSA; n = 50): 4 µg/mL (≈ 9.96 µM) | MIC50 ([2]; Staphylococcus aureus): 0.06 µg/mL (≈ 0.149 µM) | MIC90 ([2]; Staphylococcus aureus): 0.12 µg/mL (≈ 0.299 µM) | MIC range ([2]; n = 41): 0.03 to 8 µg/mL | MIC50 (MSSA; Staphylococcus aureus, MSSA): < 0.025 µg/mL | MIC90 (MSSA; Staphylococcus aureus, MSSA): < 0.0625 µg/mL | MIC range (MSSA; n = 200): 25 to 2000 µg/mL | MIC50 [3]: 2 µg/mL (≈ 4.98 µM) | MIC90 [3]: 8 µg/mL (≈ 19.9 µM) | MIC90 (S. pneumoniae (SPN) [4]): 0.12 to 0.25 µg/mL (≈ 0.299 to 0.623 µM) | strains with bactericidal activity (≥3 log10 cfu/ml decrease) (Nocardia spp. [5]): 2 strains | MIC ([6]; strain P0162 (ParC Ser79Phe, GyrA Glu85Ala)): 0.5 µg/mL (≈ 1.25 µM) | MIC ([6]; strain P0425 (ParC Ser79Phe, GyrA Glu85Lys)): 2 µg/mL (≈ 4.98 µM)

O=C(N[C@H](CO)[C@H](O)c1ccc([N+](=O)[O-])cc1)C(Cl)Cl [chloramphenicol]
resistance (Salmonella spp.): 41% | % S (S. pneumoniae (SPN) [7]; 1998): 99% | % S (S. pneumoniae (SPN) [7]; 1999): 98% | % S (S. pneumoniae (SPN) [7]; 2000): 99% | % S (S. pneumoniae (SPN) [7]; 2001): 100% | % S (S. pneumoniae (SPN) [7]; 2002): 99% | % S (S. pneumoniae (SPN) [7]; 2003): 100% | resistant isolates (Acinetobacter): 100.0% | % S (H. influenzae (HI); 1998): 96% | % S (H. influenzae (HI); 1999): 99% | % S (H. influenzae (HI); 2000): 97% | % S (H. influenzae (HI); 2001): 95% | % S (H. influenzae (HI); 2002): 93% | % S (H. influenzae (HI); 2003): 96% | resistance (nontyphoidal Salmonella; Belgian collection (caecal samples; Belgium, France, Netherlands)): 8% | resistance (nontyphoidal Salmonella; Germany (carcass meat)): 4% | resistant strains (Escherichia coli O157:H7): 6%

CCN1CCN(C(=O)N[C@@H](C(=O)N[C@@H]2C(=O)N3[C@@H]2SC(C)(C)[C@@H]3C(=O)O)c2ccccc2)C(=O)C1=O [piperacillin]
susceptible strains (Pseudomonas spp.): 84% | resistance (P. aeruginosa): 73.3% | resistant isolates (Acinetobacter): 100.0%

NC[C@H]1O[C@H](O[C@H]2[C@H](O)[C@@H](O[C@H]3O[C@H](CO)[C@@H](O)[C@H](N)[C@H]3O)[C@H](N)C[C@@H]2N)[C@H](O)[C@@H](O)[C@@H]1O [kanamycin]
resistant strains (Escherichia coli O157:H7): 3.3%

NCC[C@H](O)C(=O)N[C@@H]1C[C@H](N)[C@@H](O[C@H]2O[C@H](CN)[C@@H](O)[C@H](O)[C@H]2O)[C@H](O)[C@H]1O[C@H]1O[C@H](CO)[C@@H](O)[C@H](N)[C@H]1O [amikacin]
per cent susceptible (Enterobacteriaceae): 99% | resistant isolates (Acinetobacter): 62.1% | % susceptible ([8]; A/P (N = 200)): 91% | % susceptible ([8]; EU (N = 354)): 99% | % susceptible ([8]; NA (N = 163)): 99% | Susceptible isolates (Pseudomonas aeruginosa): 100% | MIC (K. pneumoniae): 4 µg/mL (≈ 6.83 µM) | MIC50 (Nocardia spp. [9]; Nocardia): 0.38 µg/mL (≈ 0.649 µM) | MIC90 (Nocardia spp. [9]; Nocardia): 1 µg/mL (≈ 1.71 µM) | MIC range (Nocardia spp. [9]; read after 48 and 72 h): 0.016 to 2 µg/mL | strains with bactericidal activity (≥3 log10 cfu/ml decrease) (Nocardia spp. [5]): 7 strains | resistance rate (NCCLS M100-S13) [10]: 0% | susceptibility rate (Escherichia coli; paediatric surgical unit (PSU)): 62% | susceptibility rate (Escherichia coli; paediatric units (PU)): 99% | resistance rate (NCCLS M100-S13) [11]: 0% | per cent susceptible (E. coli): 99% | per cent susceptible (Klebsiella): 98% | resistance rate (NCCLS M100-S13) [12]: 1%

CN(C)c1cc(NC(=O)CNC(C)(C)C)c(O)c2c1C[C@H]1C[C@H]3[C@H](N(C)C)C(O)=C(C(N)=O)C(=O)[C@@]3(O)C(O)=C1C2=O [TGC, tigecycline]
clinical cure rate at TOC, ME group ([13]; TGC 100 mg then 50 mg q12h iv, IMI/CIS 500/500 mg q6h, 5–14 days): 80.6% | nausea ([13]; adverse events): 31.0% | vomiting ([13]; adverse events): 25.7% | clinical cure rate at TOC, m-mITT cohort ([13]; same regimens): 73.5% | Δ Log10 CFU/ml (CA-MRSA): −2.37 Log10 CFU/ml | Δ Log10 CFU/ml (MDR-MRSA): −2.59 Log10 CFU/ml

N[C@@H](C(=O)N[C@@H]1C(=O)N2C(C(=O)O)=C(Cl)CS[C@H]12)c1ccccc1 [cefaclor]
Susceptibility (S. pneumoniae): 82.5% | susceptible (H. influenzae): 92.1%

CCOc1ccc2ccccc2c1C(=O)N[C@@H]1C(=O)N2[C@@H]1SC(C)(C)[C@@H]2C(=O)O [nafcillin]
significant biofilm killing [14]: not achieved

CC=CC1=C(C(=O)O)N2C(=O)[C@@H](NC(=O)[C@H](N)c3ccc(O)cc3)[C@H]2SC1 [cefprozil]
Susceptibility (S. pneumoniae): 87.3% | susceptible (H. influenzae): 93.3%
